Assay results taken from patent US10870638B2, “Pyridazinone compound or its salt, and herbicide containing it” (ISHIHARA SANGYO KAISHA, LTD., priority 2016, dated 2020).

Experiments:
Type in all cases: in vivo
Conditions in all cases: active ingredient amount 31 g/ha, 14th day after application
corn (Zea mays L.) [1] = assay: Test Example 1: foliar treatment, growth inhibition rate on 14th day
Outline: (§1)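 Visual 0–100% inhibition scoring (100 = complete kill) at 14 days after foliar treatment of soil-grown seedlings at species-specific leaf stages, with the compound sprayed as a wettable powder or emulsifiable concentrate dilution.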

[2] = system: wild oat (Avena fatua L.); assay: as above
Outline: (§2)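 Inhibition was rated visually 14 days after treatment on a 0–100% scale, where 100 is complete kill. Compounds, formulated as wettable powders or emulsifiable concentrates at set active-ingredient amounts, were diluted to 1,000 L/ha with 0.1 vol% spreader. The dilutions were sprayed post-emergence onto soybean (primary leaf), rice (0.2–2.7 leaf), wild oat (0.4–1.2) and green foxtail (0.5–3.2).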

[3] = system: soybean (Glycine max Merr.); assay: as above
Outline: as §2

[4] = system: barnyardgrass (Echinochloa crus-qalli L.); assay: as above
Outline: as §1

[5] = system: italian ryegrass (Lolium multiflorum Lam.); assay: as above
Outline: as §1

[6] = system: green foxtail (Setaria viridis L.); assay: as above
Outline: as §2

[7] = system: crabgrass (Digitaria sanquinalis L.); assay: as above
Outline: as §1

[8] = system: redroot pigweed (Amaranthus retroflexus L.); assay: as above
Outline: as §1

rice (Oryza sativa L.) [9] = assay: as above
Outline: as §2

[10] = system: wheat (Triticum aestivum L.); assay: as above
Outline: as §1

corn (Zea mays L.) [11] = assay: Test Example 2: soil application on the day after sowing, growth inhibition rate on 14th day
Description: (§3) Upland field soil was put into a 1/300,000 hectare pot, and seeds of various plants (barnyardgrass (Echinochloa crus-qalli L.), crabgrass (Digitaris sanquinalis L.), green foxtail (Setaria viridis L.), redroot pigweed (Amaranthus retroflexus L.), prickly sida (Sida spinosa L.), velvetleaf (Abutilon theophrasti MEDIC.), rice (Oryza sativa L.), corn (Zea mays L.), wheat (Triticum aestivum L.), soybean (Glycine max Merr.)) were sown. On the day after sowing, wettable powders or emulsifiable concentrates of the compounds of the present invention prepared in accordance with a conventional preparation method, were weighed so as to achieve the prescribed active ingredient amounts, and diluted with water in an amount corresponding to 1,000 liters per 1 hectare, followed by soil application by a small sprayer.
(§4) On the 14th day after the application, the state of growth of the respective plants was visually observed, and the herbicidal effect was evaluated by a growth inhibition rate (%) of 0 (equivalent to the non-treated area) to 100 (complete kill).

[12] = system: prickly sida (Sida spinosa L.); assay: as above
Description: as §3, §4

[13] = system: soybean (Glycine max Merr.); assay: as above
Description: as §3, §4

[14] = system: barnyardgrass (Echinochloa crus-qalli L.); assay: as above
Description: as §3, §4

[15] = system: velvetleaf (Abutilon theophrasti MEDIC.); assay: as above
Description: as §3, §4

[16] = system: crabgrass (Digitaris sanquinalis L.); assay: as above
Description: as §3, §4

[17] = system: green foxtail (Setaria viridis L.); assay: as above
Description: as §3, §4

[18] = system: redroot pigweed (Amaranthus retroflexus L.); assay: as above
Description: as §3, §4

rice (Oryza sativa L.) [19] = assay: as above
Description: as §3, §4

[20] = system: wheat (Triticum aestivum L.); assay: as above
Description: as §3, §4

Structure (SMILES)	Growth inhibition rate (%) Corn (corn (Zea mays L.) [1]) [%]	Growth inhibition rate (%) Wild oat [2] [%]	Growth inhibition rate (%) Soybean [3] [%]	Growth inhibition rate (%) Barnyardgrass [4] [%]	Growth inhibition rate (%) Italian ryegrass [5] [%]	Growth inhibition rate (%) Green foxtail [6] [%]	Growth inhibition rate (%) Crabgrass [7] [%]	Growth inhibition rate (%) Redroot pigweed [8] [%]	Growth inhibition rate (%) Rice (rice (Oryza sativa L.) [9]) [%]	Growth inhibition rate (%) Wheat [10] [%]	Growth inhibition rate (%) Corn (corn (Zea mays L.) [11]) [%]	Growth inhibition rate (%) Prickly sida [12] [%]	Growth inhibition rate (%) Soybean [13] [%]	Growth inhibition rate (%) Barnyardgrass [14] [%]	Growth inhibition rate (%) Velvetleaf [15] [%]	Growth inhibition rate (%) Crabgrass [16] [%]	Growth inhibition rate (%) Green foxtail [17] [%]	Growth inhibition rate (%) Redroot pigweed [18] [%]	Growth inhibition rate (%) Rice (rice (Oryza sativa L.) [19]) [%]	Growth inhibition rate (%) Wheat [20] [%]	other results
Cc1nn(C)c(=O)c(-c2cc(Oc3ncc(C(F)(F)F)cc3Cl)ccc2OC(F)(F)F)c1O [1-163]	100	100	0	100	99	100	100	0	75	60	80	0	0	100	0	100	100	0	40	0	
Cc1ccc(Oc2nc3cc(Cl)ccc3o2)cc1-c1c(O)cnn(C)c1=O [Compound 2-173]	65	35	0	99	90	88	95	0	85	75	10	0	0	65	0	80	10	0	20	0	
CCn1nc(C)c(OC(C)=O)c(-c2cc(Oc3ncc(C(F)(F)F)cc3Cl)ccc2C)c1=O [1-165]	100	100	0	100	100	100	100	0	83	95	0	0	0	99	0	100	95	0	0	0	
Cc1ccc(Sc2ncc(C(F)(F)F)cc2Cl)cc1-c1c(O)c(C)nn(C)c1=O [1-2, 4-(5-((3-chloro-5-(trifluoromethyl)pyridin-2-yl)thio)-2-methylphenyl)-5-hydroxy-2,6-dimethylpyridazin-3(2H)-one]	95	95	0	100	99	99	99	0	10	20											inhibition at 31 g/ha (corn (Zea mays L.) [11]; Zea mays): 20%; inhibition at 31 g/ha ([12]; Sida spinosa): 30%; inhibition at 31 g/ha ([13]; Glycine max): 0%; inhibition at 31 g/ha ([14]; Echinochloa): 98%; inhibition at 31 g/ha ([15]; Abutilon theophrasti): 0%; inhibition at 31 g/ha ([16]; Digitaria sanguinalis): 98%; inhibition at 31 g/ha ([17]; Setaria viridis): 99%; inhibition at 31 g/ha (rice (Oryza sativa L.) [19]; Oryza sativa): 20%; inhibition at 31 g/ha ([20]; Triticum aestivum): 10%
Cc1ccc(Oc2cnc3cc(Cl)ccc3n2)cc1-c1c(O)c(C)nn(C)c1=O [Compound 2-7]	10	98	0	100	100	100		50	100	98	20	0	0	99	0	99	100	0	40	25	
Cc1ccc(Oc2cnc3cc(Cl)ccc3n2)cc1-c1c(O)c(C)nn(C)c1=O [Compound 3-1]	10	98	0	100	100	100	99	50	100	98	20	0		99	0			0	40	25	
CCn1ncc(O)c(-c2cc(Oc3nc4ccc(Cl)cc4o3)ccc2C)c1=O [Compound 2-167]	90	45	30	100	80	100	99	0	60	25	0	0	0	40	0	99	100		0	0	
CC(=O)Oc1cnn(C)c(=O)c1-c1cc(Oc2nc3cc(Cl)ccc3o2)ccc1C [Compound 2-174]	95	88	0	100	95	93	93		93	93	20	0	0	20	0	80	0	0	0	0	
